Literature values, collected in publication PMC4546577 (ACS chemical biology, 2015).

Details: sulphydryl group in MeaF; ref [69] PerrinDD, Dissociation constants of organic bases in aqueous solution, 1965

Compound: N[C@@H](Cc1cccc(NCCS)c1)C(=O)O [MeaF, 3-(2-mercapto-ethyl)amino-phenylalanine]
- pKa (sulphydryl group): ~ 8.5
